Laboratory results: US20200263231A1, “Fluorogenic dyes for high sensitivity DNA detection” (LIFE TECHNOLOGIES CORPORATION, priority 2016, published 2020)

Key:
calf thymus DNA = assay: Fluorescence emission and enhancement of compounds bound to calf thymus DNA; type: binding; conditions: 0.8 μM compound with 500 ng/ml calf thymus DNA in TE buffer; for Emission Max: excited at 488 nm; for Fluorescence Enhancement: emission area 500-715 nm compared to compound 1, defined as 1000-fold
Description: Compounds 1-65 were prepared and their fluorescence absorption and emission characteristics were measured. Intrinsic fluorescence of the compounds only (without DNA) was negligible. Emission spectra for the compounds bound to dsDNA were obtained by incubating 0.8 μM compound with 500 ng/ml calf thymus DNA in TE buffer (10 mM Tris-HCl, pH 7.5, 1 mM EDTA) in a final volume of 3 ml. Measurements were made using PerkinElmer LS 55 (F-11) Fluorescence spectrometer. Samples were excited at 488 nm and fluorescence emission was measured with emission slit widths of 2.5 nm. Absorption maxima were determined according to standard techniques.
Fluorescence enhancement measurements of the compounds were obtained by incubating 0.8 μM compound with 500 ng/ml calf thymus DNA with compounds at a final concentration of 0.8 μM in TE buffer. Compound 1 was used as an internal standard to control for variability (e.g., in excitation light intensity). The area-under-curve of fluorescence emission spectra from 500 nm to 715 nm was calculated, and compared to that of compound 1, which was defined as having 1000-fold fluorescence enhancement relative to fluorescence of the compound alone.

[1] = UV/VIS absorption spectra; type: physicochemical; conditions: 10 μM compound in 50 mM potassium phosphate buffer (pH 7.0)
Description: The UV/VIS absorption spectra were obtained with 10 μM compound solution in 50 mM potassium phosphate buffer (pH 7.0) in a final volume of 3 mL. Measurements were carried out using a Lambda 245 spectrophotometer from Perkin Elmer.

| Emission Max (calf thymus DNA) [nm] | Absorbance Max [1] [nm] | SMILES | Fluorescence Enhancement (calf thymus DNA) [fold] |
| --- | --- | --- | --- |
| 525 | 496 | CCCCN(CCC[N+](C)(C)CCO)C1=C/C(=C/c2sc3ccccc3[n+]2C)c2ccccc2N1c1ccccc1.[I-].[I-] [Compound 12] | 937 |
| 524 | 498 | CC[N+](C)(C)CCCN(C)C1=C/C(=C/c2sc3ccccc3[n+]2C)c2ccccc2N1c1ccccc1.[I-].[I-] [Compound 23] | 622 |
| 520 | 497 | CN(CCC[N+](C)(C)C)C1=C/C(=C/c2sc3ccccc3[n+]2C)c2ccccc2N1c1ccccc1.[I-].[I-] [Compound 22] | 639 |
| 523 | 502 | CCCN(CCC[N+](C)(C)Cc1ccccc1)C1=C/C(=C\c2sc3ccccc3[n+]2C)c2ccccc2N1c1ccccc1.[Br-].[Cl-] [Compound 6] | 979 |
| 523 | 496 | CCN(CCC[N+](C)(C)C)C1=C/C(=C/c2sc3ccccc3[n+]2C)c2ccccc2N1c1ccccc1.[I-].[I-] [Compound 16] | 863 |
| 523 | 497 | CN(CCC[N+](C)(C)CCO)C1=C/C(=C/c2sc3ccccc3[n+]2C)c2ccccc2N1c1ccccc1.[I-].[I-] [Compound 25] | 640 |
| 523 | 497 | CCN(CCC[N+](C)(C)Cc1cccc(OC)c1)C1=C/C(=C/c2sc3ccccc3[n+]2C)c2ccccc2N1c1ccccc1.[Br-].[I-] [Compound 20] | 871 |
| 525 | 504 | CCN(CCN(C)C)C1=C/C(=C/c2sc3ccccc3[n+]2C)c2ccccc2N1c1ccccc1.[Cl-] [Compound 28] | 672 |
| 524 | 495 | CCN(CCCN(C)C)C1=C/C(=C/c2sc3ccccc3[n+]2C)c2ccccc2N1c1ccccc1.[I-] [Compound 15] | 864 |
| 524 | 501 | CCCN(CCC[N+](C)(C)CCC)C1=C/C(=C/c2sc3ccccc3[n+]2C)c2ccccc2N1c1ccccc1.[I-].[I-] [Compound 4] | 925 |
| 522 | 491 | CN(C)CCCN(C)C1=C/C(=C/c2sc3ccccc3[n+]2C)c2ccccc2N1c1ccccc1.[I-] [Compound 21] | 639 |
| 526 | 496 | CCCCN(CCC[N+](C)(C)CC)C1=C/C(=C/c2sc3ccccc3[n+]2C)c2ccccc2N1c1ccccc1.[I-].[I-] [Compound 10] | 926 |
| 524 | 496 | CCCCN(CCC[N+](C)(C)CCC)C1=C/C(=C/c2sc3ccccc3[n+]2C)c2ccccc2N1c1ccccc1.[I-].[I-] [Compound 11] | 903 |

Continued, compound first:

| SMILES | Emission Max (calf thymus DNA) [nm] | Absorbance Max [1] [nm] | Fluorescence Enhancement (calf thymus DNA) [fold] |
| --- | --- | --- | --- |
| CCCCN(CCC[N+](C)(C)CCC)C1=CC(=Cc2sc3ccccc3[n+]2C)c2ccc(OC)cc2N1c1ccccc1.[I-].[I-] [Compound 37] | 519 | 489 | 1089 |
| CCN(CCC[N+](C)(C)Cc1ccccc1)C1=C/C(=C/c2sc3ccccc3[n+]2C)c2ccc(OC)cc2N1c1ccccc1.[Br-].[I-] [Compound 53] | 520 | 490 | 1011 |
| COc1cccc(C[N+](C)(C)CCCN(C)C2=C/C(=C/c3sc4ccccc4[n+]3C)c3ccccc3N2c2ccccc2)c1.[Br-].[I-] [Compound 27] | 521 | 498 | 668 |
| CCC[N+](C)(C)CCN(CC)C1=C/C(=C/c2sc3ccccc3[n+]2C)c2ccc(OC)cc2N1c1ccccc1.[I-].[I-] [Compound 58] | 521 | 496 | 874 |
| C[n+]1c(/C=C2/C=C(n3ccnc3)N(c3ccccc3)c3ccccc32)sc2ccccc21.[I-] [Compound 61] | 540 | 514 | 26 |
| CCN(CCC[N+](C)(C)Cc1cccc(OC)c1)C1=CC(=Cc2sc3ccccc3[n+]2C)c2ccc(OC)cc2N1c1ccccc1.[Br-].[I-] [Compound 54] | 517 | 490 | 1008 |
| CCN(CCC[N+](C)(C)CCO)C1=C/C(=C/c2sc3ccccc3[n+]2C)c2ccc(OC)cc2N1c1ccccc1 [Compound 52] | 519 | 490 | 1031 |
| CCN(CCC[N+](C)(C)C)C1=CC(=Cc2sc3ccccc3[n+]2C)c2ccc(OC)cc2N1c1ccccc1.[I-].[I-] [Compound 49] | 520 | 490 | 1035 |
| CCCCN(CCC[N+](C)(C)CCO)C1=CC(=Cc2sc3ccccc3[n+]2C)c2ccc(OC)cc2N1c1ccccc1.[I-].[I-] [Compound 38] | 520 | 489 | 1089 |
| CCCCN(CCC[N+](C)(C)Cc1ccccc1)C1=C/C(=C/c2sc3ccccc3[n+]2C)c2ccccc2N1c1ccccc1.[Br-].[I-] [Compound 13] | 523 | 496 | 922 |
| CN(CCC[N+](C)(C)Cc1ccccc1)C1=C/C(=C/c2sc3ccccc3[n+]2C)c2ccccc2N1c1ccccc1.[I-].[I-] [Compound 26] | 521 | 498 | 653 |
| C[n+]1ccn(C2=C/C(=C/c3sc4ccccc4[n+]3C)c3ccccc3N2c2ccccc2)c1.[I-].[I-] [Compound 62] | – | 519 | 0.3 |
| CCCN(CCC[N+](C)(C)CCO)C1=CC(=Cc2sc3ccccc3[n+]2C)c2ccc(OC)cc2N1c1ccccc1.[I-].[I-] [Compound 45] | 517 | 494 | 1093 |
| CCN(CC[N+](C)(C)Cc1ccccc1)C1=C/C(=C/c2sc3ccccc3[n+]2C)c2ccc(OC)cc2N1c1ccccc1.[I-].[I-] [Compound 60] | 522 | 500 | 878 |
| CCN(CCC[N+](C)(C)CC)C1=CC(=Cc2sc3ccccc3[n+]2C)c2ccc(OC)cc2N1c1ccccc1.[I-].[I-] [Compound 50] | 519 | 490 | 1020 |
| C[n+]1c(/C=C2/C=C(n3cnc4ccccc43)N(c3ccccc3)c3ccccc32)sc2ccccc21.[Cl-] [Compound 63] | 543 | 518 | 42 |
